System: P. falciparum (NF54 or 3D7 strain)
Experiment: P. falciparum proliferation assay in infected human blood cells (SYBR Green)
Assay type: cell-based
Settings: Plasmodium falciparum, Erythrocyte; infected human erythrocytes, 72 hours, SYBR Green fluorescence; read-out: EC50 (nM), inhibitory efficacy in delaying P. falciparum proliferation in infected human blood cells
Experimental: Assay for P. falciparum Proliferation in Infected Human Blood Cells
Compounds of the invention can be assayed to measure their capacity to inhibit proliferation of P. falciparum parasitemia in infected red blood cells. This parasite proliferation assay measures the increase in parasite DNA content using a DNA intercalating dye, SYBR Green® (INVITROGEN®) which has a high affinity for double stranded DNA.
NF54 or 3D7 P. falciparum strain is grown in complete culturing media until parasitemia reaches 3% to 8% with O+ human erythrocytes. […] 20 μl of screening media is dispensed into 384 well assay plates. 50 nl of compounds of the invention (in DMSO), including antimalarial controls (mefloquine, pyrimethamine and artemisinin), are then transferred into the assay plates, as well as DMSO alone to serve as a negative control for inhibition. Then 30 μl of a suspension of a NF54 or 3D7 P. falciparum infected erythrocytes in screening media is dispensed into the assay plates such that the final hematocrit is 2.5% with a final parasitemia of 0.3%. The plates are placed in a 37° C. incubator for 72 hours in a low oxygen environment containing 93% N2, 4% CO2, and 3% O2 gas mixture. 10 μl of lysis buffer (saponin, triton-X, EDTA) containing a 10× solution of SYBR Green I® in RPMI media is dispensed into the plates. The plates are lidded and kept at room temperature overnight for the lysis of the infected red blood cells. The fluorescence intensity is measured (excitation 425 nm, emission 530 nm) using the Envision™ system (Perkin Elmer). The percentage inhibition of 50%, EC50, is calculated for each compound.

EC50 [nM] | SMILES
6160 | CN(C(=O)c1ccn2ncc(-c3ccc(C(=O)O)cc3)c2c1)c1ccc(C#N)cn1 [Example 101, 4-(5-((5-Cyanopyridin-2-yl)(methyl)carbamoyl)pyrazolo[1,5-a]pyridin-3-yl)benzoic acid]
935 | N#Cc1ccc(N(CCO)C(=O)c2ccn3ncc(-c4ccc(C(N)=O)cc4)c3c2)cc1 [Example 105, 3-(4-Carbamoylphenyl)-N-(4-cyanophenyl)-N-(2-hydroxyethyl)pyrazolo[1,5-a]pyridine-5-carboxamide]
521 | CNC(=O)c1ccc(-c2cnn3ccc(C(=O)Nc4ccc(C#N)cn4)cc23)cc1 [Example 106, N-(5-Cyanopyridin-2-yl)-3-(4-(methylcarbamoyl)phenyl)pyrazolo[1,5-a]pyridine-5-carboxamide]
9 | N#Cc1ccc(N(C(=O)c2ccn3ncc(-c4ccc(C(N)=O)cc4)c3c2)C2CC2)nc1 [Example 120, 3-(4-Carbamoylphenyl)-N-(5-cyanopyridin-2-yl)-N-cyclopropylpyrazolo[1,5-a]pyridine-5-carboxamide]
1160 | CC(C)NC(=O)c1ccc(-c2cnn3ccc(C(=O)N(c4ccc(C#N)cn4)C4CC4)cc23)cc1 [Example 121, N-(5-Cyanopyridin-2-yl)-N-cyclopropyl-3-(4-(isopropylcarbamoyl)phenyl)pyrazolo[1,5-a]pyridine-5-carboxamide]
> 10000 | CNC(=O)c1ccc(-c2cnn3ccc(C(=O)N(C)c4ccc(OC)nc4)cc23)cc1 [Example 122, N-(6-Methoxypyridin-3-yl)-N-methyl-3-(4-(methylcarbamoyl)phenyl)pyrazolo[1,5-a]pyridine-5-carboxamide]
393 | N#Cc1ccc(N(C(=O)c2ccn3ncc(-c4ccc(C(=O)NC5CC5)cc4)c3c2)C2CC2)nc1 [Example 123, N-(5-Cyanopyridin-2-yl)-N-cyclopropyl-3-(4-(cyclopropylcarbamoyl)phenyl)pyrazolo[1,5a]pyridine-5-carboxamide]
19 | CNC(=O)c1ccc(-c2cnn3ccc(C(=O)N(c4ccc(Cl)cn4)C4CC4)cc23)cc1 [Example 124, N-(5-Chloropyridin-2-yl)-N-cyclopropyl-3-(4-(methylcarbamoyl)phenyl)pyrazolo[1,5-a]pyridine-5-carboxamide]
80 | CNC(=O)c1ccc(-c2cnn3ccc(C(=O)N(c4ccc(F)cn4)C4CC4)cc23)cc1 [Example 125, N-Cyclopropyl-N-(5-fluoropyridin-2-yl)-3-(4-(methylcarbamoyl)phenyl)pyrazolo[1,5a]pyridine-5-carboxamide]

Same assay, conditions: Plasmodium falciparum; read-out: EC50, P. falciparum Proliferation Assay

EC50 [nM] | SMILES
< 5 | CN(C(=O)c1ccn2ncc(-c3cnc4[nH]ccc4c3)c2c1)c1ccc(C#N)cc1 [Example 40, N-(4-cyanophenyl)-N-methyl-3-(1H-pyrrolo[2,3-b]pyridin-5-yl)pyrazolo[1,5-a]pyridine-5-carboxamide]
< 5 | CN(C(=O)c1ccn2ncc(-c3ccc(N)nc3)c2c1)c1ccc(C#N)cc1 [Example 41, 3-(6-aminopyridin-3-yl)-N-(4-cyanophenyl)-N-methylpyrazolo[1,5-a]pyridine-5-carboxamide]
< 5 | C[C@@H](N)C(=O)Nc1ccc(-c2cnn3ccc(C(=O)N(C)c4ccc(C#N)cc4)cc23)cc1 [Example 44, (R)-3-(4-(2-aminopropanamido)phenyl)-N-(4-cyanophenyl)-N-methylpyrazolo[1,5-a]pyridine-5-carboxamide]
< 5 | CN(C(=O)c1ccn2ncc(-c3cnc4[nH]ccc4c3)c2c1)c1ccc(C#N)cn1 [Example 53, N-(5-cyanopyridin-2-yl)-N-methyl-3-(1H-pyrrolo[2,3-b]pyridin-5-yl)pyrazolo[1,5-a]pyridine-5-carboxamide]
< 5 | CN(C(=O)c1ccn2ncc(-c3cnc(N)nc3)c2c1)c1ccc(C#N)cc1 [Example 83, 3-(2-aminopyrimidin-5-yl)-N-(4-cyanophenyl)-N-methylpyrazolo[1,5-a]pyridine-5-carboxamide]
